Starred links: 1 amine or outer side, 2 acyl side, 3 side chain; linkers in the order of their positions; H or OH if unused. Positions of bridges follow the written chain, without caps; N, C: chain ends. Non-standard residues stand in square brackets, D forms with d. Residues, ends and D or L forms follow the SMILES beside them. *: point of attachment. C20 diacid = O=C(O)CCCCCCCCCCCCCCCCCCC(=O)*; C18 diacid = O=C(O)CCCCCCCCCCCCCCCCC(=O)*; γGlu = O=C(O)[C@H](CCC(=O)[*:2])N[*:1]; AEEA = NCCOCCOCC(=O)O
Target: T1, Amylin 3(a) receptor (human calcitonin receptor (CTa) with RAMP-3) (Homo sapiens, UniProt O60896+P30988)
T1 construct: expressed in transfected cells; host or cells: BHK570 (baby hamster kidney) cells, stably transfected, with CRE-luciferase reporter
Test: Amylin luciferase assay (CRE-luciferase reporter in BHK Amylin 3(a)//CRE-luc cells)
Format: cell-based
Conditions: BHK570 cells with human calcitonin receptor (CTa), RAMP-3 and CRE-luciferase reporter; 4 hours incubation; read-out: Potency luciferase assay
Outline: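 BHK570 cells stably expressing human calcitonin receptor (CTa), RAMP-3 and a CRE-luciferase reporter, about 20.000 cells/well, were exposed to standard or sample for 4 h at 37° C in phenol-red-free DMEM with 10% FBS and 10 mM Hepes pH 7,4. Luminescence was read after 30 min with LucLite at room temperature.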

T1 sequence (O60896 24-148): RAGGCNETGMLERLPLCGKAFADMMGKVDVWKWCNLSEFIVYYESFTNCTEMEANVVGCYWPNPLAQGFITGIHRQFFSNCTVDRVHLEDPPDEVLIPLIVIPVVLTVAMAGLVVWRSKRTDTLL
T1 sequence (P30988 25-474): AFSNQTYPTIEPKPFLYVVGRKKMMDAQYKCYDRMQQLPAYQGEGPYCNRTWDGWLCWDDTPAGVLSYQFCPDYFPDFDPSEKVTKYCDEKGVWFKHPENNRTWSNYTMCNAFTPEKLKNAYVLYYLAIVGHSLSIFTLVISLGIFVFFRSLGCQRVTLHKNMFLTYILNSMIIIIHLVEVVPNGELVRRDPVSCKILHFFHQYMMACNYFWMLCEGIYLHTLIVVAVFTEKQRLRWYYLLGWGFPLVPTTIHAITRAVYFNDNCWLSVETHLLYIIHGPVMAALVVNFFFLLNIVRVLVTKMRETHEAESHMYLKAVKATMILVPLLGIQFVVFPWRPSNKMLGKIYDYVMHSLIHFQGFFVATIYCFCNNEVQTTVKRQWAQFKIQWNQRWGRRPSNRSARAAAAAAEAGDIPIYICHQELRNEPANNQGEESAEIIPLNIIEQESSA

EC50	Molecule
0.05 nM	CC[C@H](C)[C@H](NC(=O)[C@@H]1CCCN1C(=O)CNC(=O)[C@H](Cc1ccccc1)NC(=O)[C@H](CC(N)=O)NC(=O)[C@H](CC(N)=O)NC(=O)[C@H](CO)NC(=O)[C@H](CO)NC(=O)[C@H](Cc1c[nH]cn1)NC(=O)[C@@H](NC(=O)[C@H](CC(C)C)NC(=O)[C@H](Cc1ccccc1)NC(=O)[C@H](CC(N)=O)NC(=O)[C@H](C)NC(=O)[C@H](CC(C)C)NC(=O)[C@H](CCCNC(=N)N)NC(=O)[C@H](CCC(N)=O)NC(=O)[C@@H](NC(=O)[C@H](C)NC(=O)[C@@H]1CSSC[C@H](NC(=O)[C@@H](N)CCCCN)C(=O)N[C@@H](CCCCNC(=O)CCCCCCCCCCCCCCCCC(=O)O)C(=O)N[C@@H]([C@@H](C)O)C(=O)N[C@@H](C)C(=O)N[C@@H]([C@@H](C)O)C(=O)N1)[C@@H](C)O)C(C)C)C(=O)N[C@@H](CC(C)C)C(=O)N1CCC[C@H]1C(=O)N1CCC[C@H]1C(=O)N[C@H](C(=O)N[C@@H](CC(N)=O)C(=O)N[C@H](C(=O)NCC(=O)N[C@@H](CO)C(=O)N[C@@H](CC(N)=O)C(=O)N[C@H](C(=O)N[C@@H](Cc1ccc(O)cc1)C(N)=O)[C@@H](C)O)C(C)C)[C@@H](C)O [Example 2, N-epsilon3-(17-carboxyheptadecanoyl)-[Lys3]-pramlintide (1-37)] (H-KCK(C18 diacid)TATCATQRLANFLVHSSNNFGPILPPTNVGSNTY-NH2; disulfide 2-7; N-terminus and C-terminus assumed)
0.3 nM	CC[C@H](C)[C@H](NC(=O)[C@@H]1CCCN1C(=O)CNC(=O)[C@H](Cc1ccccc1)NC(=O)[C@H](CC(N)=O)NC(=O)[C@H](CC(N)=O)NC(=O)[C@H](CO)NC(=O)[C@H](CO)NC(=O)[C@H](Cc1c[nH]cn1)NC(=O)[C@@H](NC(=O)[C@H](CC(C)C)NC(=O)[C@H](Cc1ccccc1)NC(=O)[C@H](CC(N)=O)NC(=O)[C@H](C)NC(=O)[C@H](CC(C)C)NC(=O)[C@H](CCCNC(=N)N)NC(=O)[C@H](CCC(N)=O)NC(=O)[C@@H](NC(=O)[C@H](C)NC(=O)[C@@H]1CSSC[C@H](NC(=O)[C@H](CCC(=O)O)NC(=O)[C@H](CCCNC(=N)N)NC(=O)[C@H](CCC(=O)O)NC(=O)[C@H](CCC(=O)O)NC(=O)CC[C@H](NC(=O)CCCCCCCCCCCCCCCCCCC(=O)O)C(=O)O)C(=O)N[C@@H](CC(N)=O)C(=O)N[C@@H]([C@@H](C)O)C(=O)N[C@@H](C)C(=O)N[C@@H]([C@@H](C)O)C(=O)N1)[C@@H](C)O)C(C)C)C(=O)N[C@@H](CC(C)C)C(=O)N1CCC[C@H]1C(=O)N1CCC[C@H]1C(=O)N[C@H](C(=O)N[C@@H](CC(N)=O)C(=O)N[C@H](C(=O)NCC(=O)N[C@@H](CO)C(=O)N[C@@H](CC(N)=O)C(=O)N[C@H](C(=O)N[C@@H](Cc1ccc(O)cc1)C(N)=O)[C@@H](C)O)C(C)C)[C@@H](C)O [Example 38, N-alpha-[(S)-4-carboxy-4-(19-carboxynonadecanoylamino)butyryl]-Glu-Glu-Arg-[Glu1]-pramlintide (1-37)] ({C20 diacid-γGlu}-EERECNTATCATQRLANFLVHSSNNFGPILPPTNVGSNTY-NH2; disulfide 5-10; C-terminus assumed)
0.4 nM	{C20 diacid}-EER[AEEA]ECNTATCATQRLANFLVHSSNNFGPILPPTNVGSNTY-NH2 (disulfide 6-11; C-terminus assumed) [Example 44, N-alpha-(2-{2-[2-((S)-2-{(S)-4-carboxy-2-[(S)-4-carboxy-2-(19-carboxynonadecanoylamino)butyrylamino]butyrylamino}-5-guanidinopentanoylamino)ethoxy]ethoxy}acetyl)-[Glu1]-pramlintide (1-37)]
